Source: patent US5501957A, “Method for measuring glycosyltransferase activity” (priority 1994, dated 1996)
Several values for one entry are separate records, joined by “and”; a condition that tells them apart may be missing. Equal values may be shown once. Entries after “also recorded” stand apart in the source; their conditions may differ. Read-outs that look alike come from different tables or passages of the source.

Tests used:
core 2 GlcNAc-T [1] = test system: core 2 GlcNAc-T
CHO cells [2] = experiment: Proliferation (doubling time) of CHO cells in the presence of differentiation agents; type: cell-based, Chinese hamster
CHO cells [3] = experiment: Cell morphology of CHO cells; type: cell-based, Chinese hamster
core 2 GlcNAc-T [4] = molecular target: T1, core 2 GlcNAc-T (Cricetulus griseus, UniProt A0A9J7GWB2); experiment: Kinetic analysis of core 2 GlcNAc-T activity in CHO cell lysates; type: biochemical, Chinese hamster; details: butyrate+cholera toxin-treated versus untreated CHO cells
T1 construct: The lysates were adjusted to 8-12 μg/μl protein with lysis solution and used as the source of transferases; endogenous in cells; host or cells: CHO cells (untreated or treated with differentiating agents), detergent lysate; in A6 freeze-thawed cells, pelleted membranes
T1 sequence (A0A9J7GWB2 1-428): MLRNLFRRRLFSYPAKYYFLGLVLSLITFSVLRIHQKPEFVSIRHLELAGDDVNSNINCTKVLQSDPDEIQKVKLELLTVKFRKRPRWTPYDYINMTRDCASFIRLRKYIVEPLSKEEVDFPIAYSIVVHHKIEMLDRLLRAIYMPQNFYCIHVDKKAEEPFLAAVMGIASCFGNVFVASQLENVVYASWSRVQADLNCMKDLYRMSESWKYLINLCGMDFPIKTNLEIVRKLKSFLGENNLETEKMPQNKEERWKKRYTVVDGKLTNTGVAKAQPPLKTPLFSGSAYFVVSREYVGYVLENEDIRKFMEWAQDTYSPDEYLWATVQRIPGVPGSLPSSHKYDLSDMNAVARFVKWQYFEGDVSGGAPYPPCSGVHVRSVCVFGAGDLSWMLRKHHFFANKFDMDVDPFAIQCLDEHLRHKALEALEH

core 2 GlcNAc-T [5] = experiment: Substrate Km for core 2 GlcNAc-T found in CHO and MDAY-D2 cell lysates; type: biochemical, Chinese hamster; murine
core 2 GlcNAc-T [6] = details: CHO and MDAY-D2 cell lysates; Yousefi et al (1991); cited from earlier work
bovine β1-4Gal-T = experiment: Kinetics of the β1-4Gal-T reaction; type: biochemical; details: 1 mU Gal-T, 5 min at 30° C.
[7] = test system: Ca^++ -dependent protein kinases; details: cell-free assays; Hidaka et al, 1984; cited from earlier work
[8] = test system: cAMP-dependent protein kinases; details: cell-free assays; Hidaka et al, 1984; cited from earlier work
[9] = 2 hour incubation, lysates from control or butyrate+cholera toxin-treated cells
cAMP = type: cell-based, Chinese hamster
core 2 GlcNAc-T [10] = type: biochemical, Chinese hamster
in vitro = details: hamster, cho cells
[11] = 1 μM actinomycin D, 5 μg/ml cycloheximide, 50 μM kinase inhibitors

Nc1ncnc2c1nc(Br)n2[C@@H]1O[C@@H]2COP(=O)(O)O[C@H]2[C@H]1O [8-bromo-cAMP]
effect on core 2 GlcNAc-T activity in CHO cells (in words) (core 2 GlcNAc-T [1]): failed to induce enzyme activity

C[S+](C)[O-] [DMSO, dimethylsulfoxide]
Doubling Time (CHO cells [2]): 25 to 27 h | effect on cell proliferation (in words) (CHO cells [2]): reductions in cell growth rates | Doubling Time (CHO cells [2]; average slopes of growth curves over 72 hours): 25 h | effect on cell proliferation (in words) (CHO cells [2]; listed as dimethylsulfoxide): slowed cell proliferation | changes in cell morphology (in words) (CHO cells [3]): changes in cell morphology | changes in cell morphology (in words) (CHO cells [3]; listed as dimethylsulfoxide): induced changes in cell morphology | Core 2 GlcNAc-T activity (core 2 GlcNAc-T [1]; 24 h treatment): 9.6 pmol/mg/h | Core 2 GlcNAc-T activity (core 2 GlcNAc-T [1]; 48 h treatment): 11.2 pmol/mg/h | Core 2 GlcNAc-T activity (core 2 GlcNAc-T [1]; 72 h treatment): 9.5 pmol/mg/h | B-1 Gal-T activity (β1-3Gal-T; 24 h treatment): 9.1 nmoles/m/h | B-1 Gal-T activity (β1-3Gal-T; 48 h treatment): 8.1 nmoles/m/h | B-1 Gal-T activity (β1-3Gal-T; 72 h treatment): 5.6 nmoles/m/h

CC(=O)N[C@H]1[C@@H](Oc2ccc([N+](=O)[O-])cc2)O[C@H](CO)[C@H](O)[C@@H]1O[C@@H]1O[C@H](CO)[C@H](O)[C@H](O)[C@H]1O [Galβ1-3GalNAcα-pNp]
change in Km for the synthetic acceptor (in words) (core 2 GlcNAc-T [4]): no changes in Km | fold by which substrate Km for β1-4Gal-T is lower than for core 2 GlcNAc-T (core 2 GlcNAc-T [5]): 5 fold | Km (core 2 GlcNAc-T [6]): 300 µM

COC(=O)CCCCCCCCO[C@@H]1O[C@H](CO[C@H]2O[C@H](CO)[C@@H](O)[C@H](O)[C@@H]2O[C@@H]2O[C@H](CO)[C@@H](O)[C@H](O)[C@H]2NC(C)=O)[C@@H](O)[C@H](O)[C@@H]1O [GlcNAcβ1-2Manα1-6Manβ--O--(CH2)8 --COOCH3]
Km (bovine β1-4Gal-T): 45 µM

CC1CNCCN1S(=O)(=O)c1cccc2cnccc12 (centres unmarked) [H-7]
effect on induction of core 2 GlcNAc-T activity by butyrate (in words) (core 2 GlcNAc-T [1]; [11]): blocked induction of core 2 GlcNAc-T activity | IC50 [7]: 1 to 10 µM

CNCCNS(=O)(=O)c1cccc2cnccc12 [H-8]
effect on induction of core 2 GlcNAc-T activity by butyrate (in words) (core 2 GlcNAc-T [1]; [11]): blocked induction of core 2 GlcNAc-T activity | IC50 [8]: 1 to 10 µM

NC(N)=NCCNS(=O)(=O)c1cccc2cnccc12 [H-1004]
effect on induction of core 2 GlcNAc-T activity by butyrate (in words) (core 2 GlcNAc-T [1]): had no effect

CC1=C(/C=C/C(C)=C/C=C/C(C)=C/C(=O)O)C(C)(C)CCC1 [RA, all-trans-retinoic acid]
Doubling Time (CHO cells [2]): 13 h | effect on core 2 GlcNAc-T activity in CHO cells (in words) (core 2 GlcNAc-T [1]): had no effect on activity | effect on core 2 GlcNAc-T activity in CHO cells (in words) (core 2 GlcNAc-T [1]; listed as retinoic acid): Neither cholera toxin alone, retinoic acid, DMSO nor PMA had any effect on core 2 GlcNAc-T activity

CCCCCCCCCCCCCC(=O)O[C@@H]1[C@@H](C)[C@@]2(O)[C@@H](C=C(CO)C[C@]3(O)C(=O)C(C)=C[C@@H]23)[C@@H]2C(C)(C)[C@]12OC(C)=O [TPA, phorbol 12-myristate 13-acetate]
Doubling Time (CHO cells [2]): 13 h | effect on core 2 GlcNAc-T activity in CHO cells (in words) (core 2 GlcNAc-T [1]; listed as PMA): Neither cholera toxin alone, retinoic acid, DMSO nor PMA had any effect on core 2 GlcNAc-T activity

CC(=O)N[C@H]1[C@@H](OP(=O)(O)OP(=O)(O)OC[C@H]2O[C@@H](n3ccc(=O)[nH]c3=O)[C@H](O)[C@@H]2O)O[C@H](CO)[C@@H](O)[C@@H]1O [UDP-GlcNAc]
fold by which substrate Km for β1-4Gal-T is lower than for core 2 GlcNAc-T (core 2 GlcNAc-T [5]): 7 fold | UDP-GlcNAc remaining intact [9]: 93-95% | Km (core 2 GlcNAc-T [6]): 500 µM

CCCC(=O)[O-].[Na+] [butyrate, sodium butyrate]
Doubling Time (CHO cells [2]): 25 to 27 h and 24 h | effect on cell proliferation (in words) (CHO cells [2]): reductions in cell growth rates; also recorded: slowed cell proliferation | changes in cell morphology (in words) (CHO cells [3]): induced changes in cell morphology | delay of core 2 GlcNAc-T peaks after peaks in cytosolic cAMP (cAMP): 8 to 12 h | effect on intracellular/cytosolic cAMP levels (in words) (cAMP): butyrate treatment increases intracellular cAMP levels; also recorded: elevated cytosolic cAMP levels | time by which cAMP elevation preceded induction of core 2 GlcNAc-T activity (cAMP): approximately 8 h | time of first peak of cAMP (cAMP): 12 h | time of second peak of cAMP (cAMP): 72 h | core 2 GlcNAc-T activity, kinase + (core 2 GlcNAc-T [10]): 264.9 | core 2 GlcNAc-T activity, kinase - (core 2 GlcNAc-T [10]): 267.4 | effect on core 2 GlcNAc-T activity in CHO cells (in words) (core 2 GlcNAc-T [1]): only butyrate induced core 2 GlcNAc-T activity | second peak of core 2 GlcNAc-T activity, higher than the 24 hours peak (core 2 GlcNAc-T [1]): approximately 45% | time of first peak (maximum) of core 2 GlcNAc-T activity (core 2 GlcNAc-T [1]): 24 h | time of second peak of core 2 GlcNAc-T activity (core 2 GlcNAc-T [1]): 84 h | core 2 GlcNAc-T activity greater than controls (core 2 GlcNAc-T [1]; cho cells, 2000 µM): 10-20 times | fold increase in core 2 GlcNAc-T activity (core 2 GlcNAc-T [1]; cho cells, 24 h): 16 fold | increase in β1-3 Gal-T activity (β1-3Gal-T; cho cells, 24 h, 2000 µM): approximately 2 fold | increase in β1-3Gal-T activity (β1-3Gal-T; cho cells, 24 h, 2000 µM): 2-3 times | viability at 2000 µM (in vitro): 90 to 95%

CCCC(=O)Nc1ncnc2c1ncn2[C@@H]1O[C@@H]2COP(=O)(O)O[C@H]2[C@H]1OC(=O)CCC [dibutyryl cAMP]
effect on core 2 GlcNAc-T activity in CHO cells (in words) (core 2 GlcNAc-T [1]): failed to induce enzyme activity

cholera toxin
effect on cell proliferation (in words) (CHO cells [2]): reductions in cell growth rates; also recorded: slowed cell proliferation | changes in cell morphology (in words) (CHO cells [3]): induced changes in cell morphology | effect on intracellular/cytosolic cAMP levels (in words) (cAMP): enhanced both cytosolic cAMP concentrations and core 2 GlcNAc-T activity compared to butyrate-treatment alone | additional increase in core 2 GlcNAc-T activity in butyrate-treated cells (core 2 GlcNAc-T [1]): 2 fold | effect on core 2 GlcNAc-T activity of butyrate-treated cells (in words) (core 2 GlcNAc-T [1]): enhanced both cytosolic cAMP concentrations and core 2 GlcNAc-T activity compared to butyrate-treatment alone | enhancement of core 2 GlcNAc-T activity in butyrate-treated cells (core 2 GlcNAc-T [1]): 80%
